# From patent publication US7611729B2, “Dosage forms having prolonged active ingredient release” (Lunamed AG, priority 2001, dated 2009)
# Tested on: adenocarcinoma of the prostate
# Assay: Human test results: oral treatment of prostate cancer patients with slow release tablets
# Format: in vivo
# Details: general statement
# Method: Diseases that can be beneficially influenced by the present dosage form include in particular benign prostate hyperplasy, cancer, leukemias, cystic fibrosis, AIDS, kidney and liver diseases, thalassemia and urea cycle disorders. For example, the treatment of an adenocarcinoma of the prostate can be carried out by administering twice daily, e.g. in the morning and evening, a pharmaceutical tablet formulation containing 250 mg of sodium 4-phenylbutyrate. […] Treatment may be continued for several month or years until a satisfactory effect is observed or the patient is total free of the disease.
# Following are descriptions of treatments and test results obtained from human patients.
# This patient presented on Apr. […] Because of progressive bone pains they underwent bilateral orchiectomy in February 1996. They became free of pain until November 1998 when they again suffered bone pains mainly in their back. They were than treated orally twice daily with 250 mg of sodium phenylbutyrate retard tablets according to Example 1. Four weeks later they were free of pain.
# This patient presented in March 1997 with a pathological fracture of the 8th thoracic vertebra caused by metastatic destruction. The multiple biopsies of the slightly enlarged prostate was positive for adenocarcinoma on both sides. […] On Apr. 10, 1997 they underwent bilateral orchidectomy. […]
structure (smiles),measurement,setting,value
O=C([O-])CCCc1ccccc1.[Na+] [sodium 4-phenylbutyrate],therapeutic effect (pains),"adenocarcinoma of the prostate, tablet with 250 mg twice daily, after treatment of about one month",pains disappear
same,side effects,long period of treatment,no side effects
